Columns and labels:
rice = test: Test C flooded paddy test; type: in vivo, Oryza sativa; details: Flood, scale of 0 to 100 where 0 is no effect and 100 is complete control, 13 to 15 days
Summary of the method: (§1)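 2-leaf stage; flood 3 cm over soil; compound into paddy water; depth held; greenhouse 13–15 d; visual % control vs untreated (0 = none, 100 = complete); "-" = not tested.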

morningglory = test: Test A pre-/postemergence herbicide test; type: in vivo, Ipomoea spp.
Summary of the method: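 Visual 0–100 ratings (100 = complete control) made about 10 days after treatment, greenhouse-held plants compared with untreated controls. Treatments: postemergence sprays on one- to two-leaf plants (2–10 cm tall) and preemergence directed soil sprays after planting in loam–sand, chemicals formulated in non-phytotoxic solvent containing surfactant.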

lambsquarters = test: Test C pre-/postemergence herbicide test; type: in vivo, Chenopodium album; details: Preemergence
Summary of the method: (§2)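 Greenhouse plants scored visually against untreated controls 13–15 days after treatment, 0 = no effect, 100 = complete control. Test chemicals in a non-phytotoxic solvent with surfactant were applied either to soil (loam/sand) at planting or to foliage of 1- to 4-leaf plants, 2–18 cm tall.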

barnyardgrass [1] = test: Test C flooded paddy test; type: in vivo, Echinochloa crus-galli; details: Flood, scale of 0 to 100 where 0 is no effect and 100 is complete control, 13 to 15 days
Summary of the method: as §1

sedge, umbrella = test: Test C flooded paddy test; type: in vivo, Cyperus difformis; details: Flood, scale of 0 to 100 where 0 is no effect and 100 is complete control, 13 to 15 days
Summary of the method: as §1

barnyardgrass [2] = test: Test C pre-/postemergence herbicide test; type: in vivo, Echinochloa crus-galli; details: Preemergence
Summary of the method: as §2

[3] = 31 g ai/ha, scale 0 to 100, 0 is no effect and 100 is complete control
[4] = 62 g ai/ha, scale 0 to 100 (0 no effect, 100 complete control)
[5] = 125 g ai/ha, scale 0 to 100 (0 no effect, 100 complete control)

Which “Plant response rating, Rice” value (rice; 31 g ai/ha) does the source give for O=C1NCC(c2ccc(C(F)(F)F)nc2)C1C(=O)Nc1cccc(F)c1F (racemic) [Compound 263] here?
The value was 0.

What about the “Plant response rating, Rice” value (rice; 62 g ai/ha) of the same compound?
Its value is 0.

And the “Plant response rating, Rice” value (rice; 125 g ai/ha)?
The value was 0.

What about the “Plant response rating, Rice” value (rice; 250 g ai/ha) of the same compound?
Its value is 15.

What about the “Plant response rating, Morningglory” value (morningglory; Postemergence, 500 g ai/ha, 0 to 100 scale (0 no effect, 100 complete control)) of the same compound?
The value was 60.

What about the “Plant response rating, Morningglory” value (morningglory; Preemergence, 125 g ai/ha, 0 to 100 scale where 0 is no effect and 100 is complete control) of the same compound?
Its value is 0.

And the “Plant response rating, Morningglory” value (morningglory; preemergence, 500 g ai/ha, 0 to 100 scale, 0 is no effect and 100 is complete control)?
The value was 0.

And the “Lambsquarters plant response rating” value (lambsquarters; [3])?
The value was 50.

What about the “Lambsquarters plant response rating” value (lambsquarters; [4]) of the same compound?
The value was 100.

And the “Plant response rating, Lambsquarters” value (lambsquarters; [5])?
The value was 70.

And the “Plant response rating (scale of 0 to 100), Lambsquarters” value (lambsquarters; 250 g ai/ha)?
Its value is 80.

What about the “Plant response rating, Barnyardgrass” value (barnyardgrass [1]; 31 g ai/ha) of the same compound?
The value was 20.

What about the “Plant response rating, Barnyardgrass” value (barnyardgrass [1]; 62 g ai/ha) of the same compound?
Its value is 35.

And the “Plant response rating, Barnyardgrass” value (barnyardgrass [1]; 125 g ai/ha)?
Its value is 45.

And the “Plant response rating, Barnyardgrass” value (barnyardgrass [1]; 250 g ai/ha)?
The value was 80.

And the “Plant response rating, Sedge, Umbrella” value (sedge, umbrella; 31 g ai/ha)?
The value was 0.

And the “Plant response rating, Sedge, Umbrella” value (sedge, umbrella; 62 g ai/ha)?
The value was 0.

What about the “Plant response rating, Sedge, Umbrella” value (sedge, umbrella; 125 g ai/ha) of the same compound?
The value was 0.

What about the “Plant response rating, Sedge, Umbrella” value (sedge, umbrella; 250 g ai/ha) of the same compound?
The value was 0.

And the “Barnyardgrass plant response rating” value (barnyardgrass [2]; [3])?
The value was 75.

And the “Barnyardgrass plant response rating” value (barnyardgrass [2]; [4])?
The value was 90.

What about the “Plant response rating, Barnyardgrass” value (barnyardgrass [2]; [5]) of the same compound?
The value was 95.

And the “Plant response rating (scale of 0 to 100; 0 is no effect, 100 is complete control), Barnyardgrass” value (barnyardgrass [2]; 250 g ai/ha)?
Its value is 98.

Reference: patent US10294202B2, “Pyrrolidinones as herbicides” (FMC Corporation, priority 2013, dated 2019)
